According to patent US20240268388A1, “AGRICULTURAL AND HORTICULTURAL FUNGICIDAL COMPOSITION” (NIPPON SODA CO., LTD., priority 2021, published 2024):

What was measured:
[1] = tested on: wheat leaf blight pathogen (Septoria tritici); experiment: Fungicidal test for wheat leaf blight (microplate, turbidity at 405 nm); format: cell-based; conditions: for inhibition at 6.3 ppm / inhibition at 12.5 ppm / inhibition at 25 ppm / inhibition at 50 ppm / inhibition at 100 ppm: component (I) alone
Procedure: Compounds of component (I) and component (II) were dissolved in dimethyl sulfoxide at 10,000 ppm and diluted with water to the prescribed concentration to prepare a chemical agent solution. A mixture of the prescribed concentration of the chemical agent solution, wheat leaf blight pathogen (Septoria tritici) conidia, and malt extract was prepared on a microplate and incubated at 20° C. in the dark for 3 days. The turbidity at a wavelength of 405 nm was measured with a microplate reader, and the growth of wheat leaf blight pathogen was compared with that of no treatment control to determine the growth inhibition rate. The results are shown in Tables 2 to 7, along with the expected values calculated as below.
Each expected value was calculated from the fungicidal efficacy of a single application of the compound of component (I) and the fungicidal efficacy of a single application of compound of component (II) by using Colby's equation (S. R. Colby, Calculating synergistic and antagonistic responses of herbicide combinations, Weeds, 15, 20-22 pp (1967)).
[formula] • where E represents the expected value of the growth inhibition rate (%) for the composition containing component (I) and component (II), M represents the growth inhibition rate (%) when the component (I) is used alone, and N represents the growth inhibition rate (%) when the component (II) is used alone. When the measured growth inhibition rate (%) for the composition containing component (I) and component (II) is greater than the expected value E, the composition containing components (I) and component (II) should exert a synergistic effect.

[2] = tested on: soybean rust pathogen (Phakopsora pachyrhizi); experiment: Soybean rust control test (leaf discs); format: in vivo
Procedure: Compounds of component (I) and component (II) were dissolved in dimethyl sulfoxide and diluted with water to the prescribed concentration to prepare a chemical agent solution. A mixture of the prescribed concentration of the chemical agent solution and sterile water was prepared on a microplate, and leaf discs cut from soybean leaves were floated on the microplate. Uredospores of soybean rust pathogen (Phakopsora pachyrhizi) were inoculated and incubated at 25° C. for 9 days. The area percentage of lesions was determined by observing uredospore-forming lesions on the leaf discs, and the control value was calculated. The control value was calculated by the following formula:
Control value (%)=100−{Area percentage of lesions in treatment plot/Area percentage of lesions in untreatment plot}×100.
The results are shown in Tables 8 to 18, along with the expected values calculated as below. Each expected values was calculated from the fungicidal efficacy of a single application of compound of component (I) and the fungicidal efficacy of a single application of compound of component (II) by using Colby's equation:
[formula] • where E represents the expected value of the control value for the composition containing component (I) and component (II), M represents the control value (%) when the component (I) is used alone, and N represents the control value (%) when the component (II) is used alone. When the measured control value for the composition containing component (I) and component (II) is greater than the expected value E, the composition containing component (I) and composition (II) should exert a synergistic effect.

[3] = Table 15, component (II) alone (component (I): None): Azoxystrobin 0.0001, Inpyrfluxam 0.000025, Chlorothalonil 0.0063, Difenoconazole 0.000025, Cyproconazole 0.000025, Tebuconazole 0.000025, Trifloxystrobin 0.0001, Pyraclostrobin 0.0001, Fluazinam 0.0063, Fluxapyroxad 0.000025, Prothioconazole 0.000025, Florylpicoxamid 0.0001, Benzovindiflupyr 0.000025, Mancozeb 0.0063 ppm
[4] = Table 18, component (II) alone (component (I): None): Azoxystrobin 0.0001, Inpyrfluxam 0.000025, Chlorothalonil 0.0063, Difenoconazole 0.000025, Cyproconazole 0.000025, Tebuconazole 0.000025, Trifloxystrobin 0.0001, Pyraclostrobin 0.0001, Fluazinam 0.0063, Fluxapyroxad 0.000025, Prothioconazole 0.000025, Florylpicoxamid 0.0001, Benzovindiflupyr 0.000025, Mancozeb 0.0063 ppm
[5] = Zymoseptoria tritici, component (II) alone, read-out: growth inhibition rate
[6] = Zymoseptoria tritici, read-out: growth inhibition rate
[7] = component (I) alone, 0.0063 ppm

Cn1cc(C(=O)Nc2cccc3c2[C@@H]2CC[C@H]3C2=C(Cl)Cl)c(C(F)F)n1 (racemic) [Benzovindiflupyr, benzovindiflupyr, reference compound]
growth inhibition rate ([1]; component (II) alone, 0.01 ppm): 48%
growth inhibition rate ([1]; component (II) alone, 0.04 ppm): 65%
control value [2, 3]: 50%
control value [2, 4]: 50%

Fc1ccc([C@]2(Cn3cncn3)O[C@H]2c2ccccc2Cl)cc1 (racemic) [Epoxiconazole, epoxiconazole]
inhibition at 0.02 ppm [1, 5]: 27%
inhibition at 64 ppm [1, 5]: 94%

CO/C=C(/C(=O)OC)c1ccccc1Oc1cc(Oc2ccccc2C#N)ncn1 [Azoxystrobin, azoxystrobin, reference compound]
growth inhibition rate ([1]; component (II) alone, 0.06 ppm): 10%
growth inhibition rate ([1]; component (II) alone, 1 ppm): 10%
control value [2, 3]: 33%
control value [2, 4]: 0%

Cn1cc(C(=O)Nc2ccc(F)cc2-c2ccc(Cl)c(Cl)c2)c(C(F)F)n1 [Bixafen, bixafen]
growth inhibition rate ([1]; component (II) alone, 0.004 ppm): 27%

N#Cc1c(Cl)c(Cl)c(Cl)c(C#N)c1Cl [Chlorothalonil, chlorothalonil, reference compound]
inhibition at 0.001 ppm ([1]; Zymoseptoria tritici, component (II) alone, 0.001 ppm, read-out: growth inhibition rate): 8%
inhibition at 0.02 ppm [1, 5]: 2%
inhibition at 0.04 ppm ([1]; Zymoseptoria tritici, component (II) alone, 0.04 ppm, read-out: growth inhibition rate): 9%
control value ([2]; Table 14, component (II) alone (component (I): None): Inpyrfluxam 0.00025, Chlorothalonil 0.006, Thiophanate-methyl 0.0001, Tebuconazole 0.000025, Trifloxystrobin 0.0001, Fluazinam 0.006, Prothioconazole 0.000025, Florylpicoxamid 0.0001, Metominostrobin 0.0004 ppm): 44%
control value [2, 3]: 33%
control value ([2]; Table 16, component (II) alone (component (I): None): Inpyrfluxam 0.000025, Chlorothalonil 0.006, Thiophanate-methyl 0.0001, Tebuconazole 0.000025, Trifloxystrobin 0.0001, Fluazinam 0.006, Prothioconazole 0.000025, Florylpicoxamid 0.0001, Metominostrobin 0.0004 ppm): 44%
control value ([2]; Table 17, component (II) alone (component (I): None): Inpyrfluxam 0.000026, Chlorothalonil 0.02, Thiophanate-methyl 0.0004, Tebuconazole 0.0001, Trifloxystrobin 0.0001, Fluazinam 0.006, Prothioconazole 0.000025, Florylpicoxamid 0.0001, Metominostrobin 0.0004 ppm): 75%
control value [2, 4]: 0%

CCON=C1CN(C(=O)Cc2ccc(-c3noc(C(F)(F)F)n3)cc2)C1 [Compound 1]
inhibition at 6.3 ppm [1, 6]: 44%
inhibition at 12.5 ppm [1, 6]: 58%
inhibition at 25 ppm [1, 6]: 70%
inhibition at 50 ppm [1, 6]: 82%
inhibition at 100 ppm [1, 6]: 90%
control value [2, 7]: 12%
control value ([2]; component (I) alone, 0.025 ppm): 48%
control value ([2]; component (I) alone, 0.1 ppm): 75%
control value ([2]; component (I) alone, 0.4 ppm): 99%

O=C(Cc1ccc(-c2noc(C(F)(F)F)n2)cc1)N1CCC(=NOC2CCCCO2)CC1 (stereo not shown) [Compound 2]
inhibition at 6.3 ppm [1, 6]: 34%
inhibition at 12.5 ppm [1, 6]: 46%
inhibition at 25 ppm [1, 6]: 52%
inhibition at 50 ppm [1, 6]: 59%
inhibition at 100 ppm [1, 6]: 62%

O=C(Cc1ccc(-c2noc(C(F)(F)F)n2)cc1)N1CC(=NOCC(F)F)C1 [Compound 4]
inhibition at 6.3 ppm [1, 6]: 36%
inhibition at 12.5 ppm [1, 6]: 49%
inhibition at 25 ppm [1, 6]: 75%
inhibition at 50 ppm [1, 6]: 99%
inhibition at 100 ppm [1, 6]: 100%
control value [2, 7]: 18%
control value ([2]; component (I) alone, 0.025 ppm): 28%
control value ([2]; component (I) alone, 0.1 ppm): 67%
control value ([2]; component (I) alone, 0.4 ppm): 97%

O=S(=O)([O-])[O-].[Cu+2] [Copper sulfate, copper sulfate]
growth inhibition rate ([1]; component (II) alone, 0.25 ppm): 8%
growth inhibition rate ([1]; component (II) alone, 1 ppm): 24%
growth inhibition rate ([1]; component (II) alone, 16 ppm): 73%

Cc1ccc(-c2c(Cl)nc(C#N)n2S(=O)(=O)N(C)C)cc1 [Cyazofamid, cyazofamid]
inhibition at 0.25 ppm ([1]; Zymoseptoria tritici, component (II) alone, 0.25 ppm, read-out: growth inhibition rate): 0%
inhibition at 4 ppm ([1]; Zymoseptoria tritici, component (II) alone, 4 ppm, read-out: growth inhibition rate): 6%
inhibition at 16 ppm ([1]; Zymoseptoria tritici, component (II) alone, 16 ppm, read-out: growth inhibition rate): 4%
inhibition at 64 ppm [1, 5]: 27%
